From a melting point compilation (Tetko et al.; mined from patent text by program, amines drawn as free bases though some values may be those of a salt)

Compound | melting point [°C]
Cc1ccc(S(=O)(=O)Nc2cccc([N+](=O)[O-])c2N)cc1 | 195
NC(=O)C1(c2c(F)cccc2Cl)CC1 | 98 to 102
COc1cc2c(cc1OC)C(C=Cc1cccc(OC)c1OC)=NN(C(C)=O)C(C)C2 (stereo not given) | 72 to 74
CC(Oc1ccc2nc(N)sc2c1)c1cc(F)cc(F)c1 (stereo not given) | 132
CC(C)(C)OC(=O)N1CC(O)CN1C(=O)OC(C)(C)C | 100 to 102
CC1(C)COc2ccc(C(=O)O)cc2OC1 | 172 to 173
COc1ccc([C@H]2c3[nH]c4ccccc4c3C[C@H]3C(=O)NC(=O)N23)cc1 (relative stereo) | 295 to 305
CN(C)CC#Cc1cc(CC2CCOCC2)cc2c(=O)c(C(=O)NCc3ccc(Cl)cc3)cn(C)c12 | 157 to 159
CCN1CCc2sc3ncn(CCCl)c(=O)c3c2C1 | 94 to 96
CCOC(=O)COc1cccc2c1CCCC2=O | 58 to 60
COCC(C)OC(=O)c1ccc([N+](=O)[O-])cc1[N+](=O)[O-] (stereo not given) | 42
COc1ccc(C(=O)NCC[C@@H](O)C(=O)O)cc1 | 104
O=c1cc(-c2n[nH]c3ccccc23)oc2ccccc12 | 237 to 238
Cc1cc(-c2nc3ccccc3[nH]2)n[nH]1 | 322 to 324
COC1=Cc2c(c(=O)[nH]c3ccc(OC)cc23)[C@@H](C)C1 | 153 to 157
NC1=CC2=C(CC1)CCc1c2[nH]c(=O)c(=O)n1Cc1ccccc1 | 290
Cc1nc(Sc2cccc(C(=O)O)n2)sc1CC(=O)O | 211 to 213
FC(F)(F)c1cccc(C2=CCN(CCc3ccc4cc[nH]c4c3)CC2)c1 | 168 to 169
COc1ccc(-c2nc(-c3ccc[nH]3)n(CCCBr)c2-c2ccc(OC)cc2)cc1 | 97
Cc1cccc(-n2nc3c(c2-c2cc4cnccc4s2)CCC3)n1 | 146 to 148
O=[N+]([O-])c1cc(CCl)cc([N+](=O)[O-])c1CCl | 106
CCOC(=O)c1cc(-c2cccc(OC)c2)[nH]c1N | 96 to 97
CS(=O)(=O)Nc1cc2occ(Br)c(=O)c2cc1Oc1ccccc1 | 215 to 216
Cc1ncn(C(=O)Nc2cc(Cl)cc(Cl)c2)c1Cl | 137 to 139
CCn1ccc(C(=O)c2cc(C(C)(C)C)c(O)c(C(C)(C)C)c2)c1 | 73 to 75

Compound | melting point [°C]
NC(=NOCC1CC1)c1c(C(F)(F)F)ccc(C(F)(F)F)c1Cl | 75 to 80
COc1ccc(OCC(O)CNCCNc2c(C)c(=O)n(C)c(=O)n2C)cc1 (stereo not given) | 115 to 117
CC(C)(C)COc1ccc([N+](=O)[O-])cc1C#N | 90 to 91
Cc1ccc(-n2nc3c(c2O)-c2ccccc2CC3)nc1 | 156 to 157
Clc1ccc(Nc2nnc(OCc3ccncc3)c3ccccc23)cc1 | 139 to 141
O=C1O[C@@H](CO)CN1c1ccc(Br)cn1 | 123 to 124
Cc1ccc(N2C(=O)C(O)=C(C(=O)c3ccc(C(C)C)cc3)C2c2ccc(OC(F)(F)F)cc2)nn1 (stereo not given) | 221
CC(C)c1nc(CCOC2=CCC(C(C)(C)C)CC2)n(C)c1Sc1cc(Cl)cc(Cl)c1 (stereo not given) | 99.5 to 100
Cn1c2c(c(=O)n3nc(-c4ccccc4)cc13)CN(C1CCCCC1)C2=O | 276 to 279
O=C(O)c1cccc(F)c1Nc1ccccc1F | 176
NC(=O)CCc1cccc(-c2nc(=O)c3ccccc3s2)n1 | 236
Nc1ccc(-c2ccc(C(=O)NC3CN4CCC3CC4)o2)cc1 (stereo not given) | 103 to 113
Cc1nn2ccccc2c1SC#N | 111 to 113
O=C(NC(=O)c1c(F)cccc1F)Nc1cc(Cl)c(Oc2ccc(Cl)c3ccccc23)c(Cl)c1 | 237 to 239
O=c1c(-c2ccc(O)cc2)coc2cc(O)ccc12 | 227 to 228
CC1(C)CC(=O)SC(=NCCCCN2CCN(c3ncccn3)CC2)N1 | 148
COCCOCCN1C(=O)C2(COc3cc4c(cc32)OCCO4)c2ccccc21 (stereo not given) | 90 to 91
COc1cc(COc2cc(/C=C/c3cscn3)n(-c3ccccc3)n2)ccc1OCc1nc(-c2ccco2)oc1C | 154 to 155
Cc1cc(SCCc2cccc3sc(-c4ccc(C(F)(F)F)cc4)nc23)ccc1OCC(=O)O | 97 to 100
COC(=O)Nc1cc(Oc2ccc3c(C(=O)Nc4ccc(CN5CCNCC5)c(C(F)(F)F)c4)cccc3c2)ncn1 | 138 to 148
CC(C)Sc1cc2c(cc1Cl)N=C(c1ccncc1)NS2(=O)=O | 254 to 256
Cc1c(C(F)(C(F)(F)F)C(F)(F)F)c(-c2ccc(S(N)(=O)=O)cc2)c2n1CCC2 | 200
N#CCCNC(=O)c1cccc(-c2cccc(Oc3ccc(Cl)cc3)n2)c1 | 143 to 144
CN1C(=O)CC[C@]2(C)c3ccc(-c4ccccc4Cl)cc3CC[C@@H]12 | 111 to 120
CCC(CC)Nc1cc(C)nc(Cl)c1C(=O)OC | 82 to 84

Compound | melting point [°C]
COc1ccc(S(=O)(=O)N(COCC[Si](C)(C)C)c2ccccc2I)cc1 | 69 to 70
CCOc1cc(C(=O)N2CCC(CCN3CCC(C(N)=O)(c4ccccc4)CC3)(c3ccc(OC)c(OC)c3)C2)cc(OCC)c1OCC (stereo not given) | 139 to 141
CCOC(=O)C1(c2ccccc2)CCC=CC1OC(C)=O (stereo not given) | 72 to 73
CSc1ccc(C2(C(C)=O)C=CC=CC2)cc1 (stereo not given) | 182 to 184
CCCCCCCCCCCCCCCCC(C(=O)O)S(C)=O (stereo not given) | 93 to 97
COC(=O)c1cc2n(c1)CCCC2 | 72 to 74
CC(C)Cc1n[nH]c2c1c(=O)n(-c1ccccc1)c1ncccc21 | 217 to 220
CC(C)(C)NC(=O)C(C)(C)C | 116 to 118
COC(C)c1cccc(NC(=O)NCC(=O)N(CC(=O)N(C)c2ccccc2)c2ccccc2)c1 (racemic) | 194
O=C(CCC1CCCCCCCCCCC1)C1=C(O)CSC1=O | 60 to 62
Cc1occc1COC(C)CN(O)C(N)=O (stereo not given) | 101 to 102
CCn1cc(C=O)c(OCc2ccc(OCc3nc(-c4ccco4)oc3C)c(OC)c2)n1 | 103 to 104
COc1ccc(C(=O)N2CCC(CCN3CCC(Nc4nc5ccccc5[nH]4)CC3)(c3ccccc3)C2)c(OC)c1OC (stereo not given) | 112 to 119
CN1C(=O)SC(Cc2ccc(N)cc2)C1=O (stereo not given) | 91 to 92
O=C1NC(=O)C2(CCNCC2)N1Cc1ccccc1 | 195 to 196
CC(=O)Nc1nc2c(ncn2COCCOC(C)=O)c(=O)[nH]1 | 202 to 204
CCOC(=O)CC(=O)c1cc(F)c(N2CCC(N)C2)nc1Nc1ccc(F)cc1F (stereo not given) | 140 to 142
Cc1cc(C)cc(-c2[nH]c3ccc(C(=O)O)cc3c2CCN(CCCCc2ccc(NS(C)(=O)=O)cc2)C(=O)OCc2ccccc2)c1 | 212 to 213
CS(=O)(=O)c1cccc(NC(=O)c2cnn3c(C(F)F)cc(-c4ccc(OC(F)(F)F)cc4)nc23)c1 | 223
O=C(NCCCCCCOc1ccccc1C(=O)Nc1ccc(C(=O)N2CCCCc3ccccc32)cc1)c1ccccc1 | 178
COc1cc(C(=O)NS(=O)(=O)c2ccccc2C)ccc1Cc1cn(C)c2ccc(CCNC(=O)N3CCOCC3)cc12 | 125 to 133
Cc1cc2[nH]c3ncccc3c(=O)n2n1 | > 300
Cc1ccc(C(F)(F)F)cc1[N+](=O)[O-] | 31 to 33
O=C(Cn1c(-c2ccc([N+](=O)[O-])cc2)ncc(NC(=O)OCc2ccccc2)c1=O)NC(Cc1ccccc1)C(=O)C(F)(F)F (stereo not given) | 117 to 121
Cc1[nH]c2ccc(CCN(CC(C)C)CC(C)C)cc2c1C(=O)OCc1ccccc1 | 134 to 135

Compound | melting point [°C]
C[C@@H](n1cnc2c(Cl)cc(Cl)cc2c1=O)[C@](O)(Cn1cncn1)c1ccc(F)cc1F | 158 to 160
COC(=O)c1ccc(-c2nc(-c3ccc(Oc4ccccc4)cc3)no2)cc1 | 112 to 113
CCCCCCCCCC(=O)Nc1ccc(S(=O)(=O)Nc2nncs2)cc1 | 151 to 152
COc1cc(F)c(-c2cncc(OC3SCC(O)C(O)C3O)c2)c(F)c1 (stereo not given) | 200
CCCCNC(=O)NS(=O)(=O)c1cc(C(F)(F)F)ccc1S(=O)(=O)N(C)C | 128 to 130
Cc1cc2oc(=O)c3c(c2cc1Cl)CC(N1CC2CCCC(C2)C1)NC3 (stereo not given) | 147 to 149
Nc1nc2ccc(Cc3ccccc3)cc2s1 | 173 to 175
COCOc1c2c(cc3ccccc13)N(C(=O)OC(C)(C)C)CC2CCl (stereo not given) | 99 to 101
Cc1nc(NC(=O)Cc2ccccc2)sc1C(=O)NCc1ccccc1 | 63 to 65
Clc1ccc2c(c1)CCN(c1ccccc1)C2 | 67 to 70
O=C(O)CCCCCCCCC=Cc1cccs1 | 61 to 62
CC(C)(c1ccc(O)cc1)c1ccc(N2C(=O)C=CC2=O)cc1 | 168 to 171
OC[C@@H](O)[C@@H](O)[C@H](O)[C@@H](O)CNC1CCCCC1 | 144 to 146
O=C(O)c1cn(-c2ccc(F)cc2)c2cc(-c3ccncc3)ccc2c1=O | 280 to 281
C[C@@H]1CN(c2ccc(-c3[nH]nc4c3C(=O)c3c(NC(=O)NN5CCOCC5)cccc3-4)cc2)C[C@H](C)N1C | 240
COC(=O)CC1=C(C)C(=Cc2ccc(S(=O)(=O)NC(C)=O)cc2)c2ccc(OC)cc21 | 172 to 174
CCCCc1n[nH]c(C(F)(F)CCC)n1 | 92 to 93
Clc1ncccc1-c1ccccn1 | 50
N#Cc1cnn(-c2ccc(OC(F)(F)F)cc2Cl)c1N | 115
O=C(CCCl)N(c1ccccc1)C1CCCc2ccccc21 (stereo not given) | 78 to 81
CCSc1nc(O)ns1 | 129
Nc1cccc2cnc(Cl)cc12 | 176 to 177
Cc1cccc(C)c1N(CC(C)O)C(=O)c1ccccc1 (stereo not given) | 121 to 122
CC(C)(N)Cc1c[nH]c2ccc(Br)cc12 | 150 to 155
COC(=O)c1ccc(C)c(-n2c(C)cc(OCc3ccccc3CNC(=O)Nc3cc(C(C)(C)C)nn3-c3ccc(Cl)c(O)c3)c(Cl)c2=O)c1 | 193 to 195
